Series [1] concerns CHO-450red (human cytochrome P-450 reductase transfected CHO cells). The series is described as follows: Aerobic/hypoxic cell survival, cytochrome P-450 reductase transfected CHO cells. The class given is cell-based. Particulars: drug 10 μM. The procedure: EMT6 or CHO (parental or human cytochrome P-450 reductase transfected) cells, seeded in glass milk dilution bottles, were gassed for 2 hours through a rubber septum fitted with 13 gauge (inflow) and 18 gauge (outflow) needles with a mixture of 5% CO2, oxygen at various concentrations, with the balance of the mixture made up of nitrogen, to establish various hypoxic conditions. Drugs were then injected without disrupting hypoxia. After two hours, cells were collected and plated in a clonogenic assay to determine the surviving fraction, compared to untreated controls.
For in vitro analysis, KS119W must be converted to KS119OH (1) in an AP-catalyzed reaction shown above in FIG. 2, as the phosphorylated parent drug cannot cross cell membranes. KS119OH is then used in all subsequent in vitro studies shown in this section.
Like KS119, cytochrome P-450 reductase can activate KS1190H under hypoxic conditions.

The nature of series [2]: Toxicity of treatment in tumor-bearing mice (body weight, blood cell count, appearance). The class given is in vivo. Particulars: three tumor models in mice, edema observed. On the procedure: (§1) The anti-tumor effects of aforementioned prodrugs are evaluated in both solid and liquid tumor models, including the B16-F10 murine melanoma, HTB177 human lung carcinoma models, DLD1 human colon carcinoma, EMT-6 murine mammary gland carcinoma, L1210 murine leukemia, lymphoma, prostate cancer, pancreatic cancer, and head-and-neck cancer. The prodrugs are given intravenously, orally, or intraperitoneally at doses from 10 mg/kg to 2000 mg/kg; they are give at different dosing schedules such as 4 times daily, once daily, or once every several days for up to 60 doses. Testing tumor cells were implanted subcutaneously into mice, which were randomized into groups immediately after tumor cell implantation (Day 0). Mice were injected intraperitoneally (ip) with either a bolus injection of 0.1 mL PBS or drug. The treatment was carried out in a designed dosing schedule. Tumor measurement in three dimensions was determined once a week with the formula L×H×W/2, where L, H, and W represent length, height, and width, respectively. The toxicity of these drugs in mice was mild as determined by body weight loss and animal appearance.
Efficacies of KS119W and KS119 were compared with equivalence molar doses in EMT-6 tumor and H460 tumor models. KS119W was formulated with 0.25M sodium bicarbonate solution. The treatment was started when tumors researched 150 to 200 mm^3, and lasted up to 2 weeks. KS119 at doses of 80 and 100 mg/kg and KS119W at doses of 97.6 and 121.3 mg/kg were daily administrated into mice via ip injection. […] The toxicity of KS119 and KS119W were dose-dependent. To assess the toxicity of treatment, body weight and peripheral blood cell count were monitored after treatment.
Combined therapy of KS119W with cytoxan (CTX) was evaluated by using KS119W at dose below the MTD in combination with nontoxic dose of CTX against EMT-6 murine mammary carcinoma and H460 human lung carcinoma in CD-1 nude mice. The tumors were allowed to grow to a size of approximately 200 mm^3. In H460 tumor model, the animals received either with 4 doses 180 mg/kg and 1 dose 240 mg/kg of […] or CTX at dose of 100 mg/kg per dose per animal, ip injecting the drugs on 15, 22, 27, 34 and 43 days after the tumor implantation. In the combination studies, CTX was given two hours after dosing KS119W. […] The inhibition of combination therapy was statistically significant against all control groups with p values of 0.003, 0.015 and 0.038, respectively. Additive toxicity at the doses used for combination was manageable; while the 180 mg/kg qw ×4 doses of KS119W alone caused a maximum net body weight loss of 4.5%, the same dose in combination with 4 doses of CTX at 100 mg/kg per week caused 8.6% weight loss but no death. A similar degree of growth inhibition was also observed with EMT-6 tumor model. […]

The subject of series [3] is SHP77 human lung carcinoma. The series is described as follows: In vivo anti-tumor activity, SHP77 xenograft. The arrangement: species or system mice. Conditions: SHP77/Scid-Beige; dose VNP40541 110 mpk, VNP40551 85 mpk. The procedure:
as §1
Efficacy of KS119 was studied in murine tumor model and human xenograft models. EMT-6 murine mammary carcinoma cells (3×10^5 cells/mouse) were implanted subcutaneously into Balb/c mice. […]

A short description of series [4]: Maximum tolerated dose (MTD) finding. The class given is in vivo, mice. The procedure: In order to fairly select a better compound from two enantiomers of KS119W for future clinical development, finding maximum tolerated dose (MTD) for VNP40541 (R-form) and VNP40551 (S-form) was conducted and the results were shown as Table 3.

On to `C[C@@H](OC(=O)N(N(CCCl)S(C)(=O)=O)S(C)(=O)=O)c1ccc([N+](=O)[O-])c(OP(=O)(O)O)c1` [VNP40541], for which, in series [1] (0.1% oxygen), the “Surviving fraction at 0.1% oxygen” value was 0.001368. Further, in series [1] (air), the “Surviving fraction in air” value turned out to be 0.9277. Moreover, in series [2], the “toxicity compared between the enantiomers” value is reported as “lower toxicity, particularly having less edema observed”. For the same molecule, the “Inhibition (%)” value in series [3] was 83%. Further, the MTD in series [4] (BALB/c mice, × 5) is 100 mpk; in series [4] (Nude CD-1 mice, × 10), 140 mpk; in series [4] (Scid/Beige mice, × 8) it was 110 mpk.

For the origin of these results see patent publication US7405317B2, “Phosphate-bearing prodrugs of sulfonyl hydrazines as hypoxia-selective antineoplastic agents” (priority 2004, dated 2008).
